Assays:
[1] = molecular target: human STING (Homo sapiens, UniProt Q86WV6); conditions: cited from earlier work
[2] = molecular target: T1, STING (Homo sapiens, UniProt Q86WV6, G230A/H232R/R293Q/R71H); experiment: cGAMP dose-response IFN induction in the presence of increasing compound concentrations; format: cell-based; conditions: for cGAMP induced IFN induction in the presence of increasing concentrations of compound: FIGS. 16A-16D
T1 construct: host or cells: THP-1 / THP1-Dual / THP1-Lucia ISG cells
Protocol: Compounds UT009, UT019, UT073 and UT122 were tested for their ability to interfere with cGAMP induced STING signaling. FIGS. 16A-16D show dose response plots of cGAMP induced IFN induction in the presence of increasing concentrations of each compound.
(§1) Compounds UT017, UT018, UT019 and UT0122 were tested for their ability to interfere with STING signaling. Interferon production in the presence of increasing concentrations of UT017, UT018, UT019 or UT0122 were measured in THP-1 cell lines under basal conditions. […] Compound UT0122 was further tested in THP1-Lucia™ ISG cells for interferon production at varying concentration, in the presence of an increasing dose of a STING agonist cGAMP.

[3] = molecular target: T1, STING; experiment: STING pathway activity in THP1-Dual/THP-1 cells upon cGAMP or MSA-2 stimulation (luciferase/interferon readout); format: cell-based; conditions: THP-1 cells; for inhibition at 10 µM: 10 μM compound, cGAMP (100 μM) or MSA-2 (10 μM) stimulation; for Induction of interferon production in the presence of MSA2: 10 μM MSA2; for Induction of interferon production in the presence of MSA2 / Interferon production in the presence of cGAMP: increasing concentrations of compound; for Interferon production in the presence of cGAMP: 100 μM cGAMP
From the text: (§2) Methods of measuring STING activity and by extension, the activity of the compounds discussed herein, are known in the art. As an example, the STING pathway activity may be evaluated using reporter cell lines where a reporter gene (i.e., luciferase, GFP) is expressed under direct or indirect control of interferon response elements. For example, in an exemplary embodiment, the STING pathway can be measured using THP1-Dual™ cells (InvivoGen) which express the Lucia gene (a secreted luciferase reporter gene) under the control of an ISG54 minimal promoter in conjunction with five IFN-stimulated response elements. The STING pathway, when activated, stimulates interferon release which, in this model, will increase luciferase expression in a detectable manner. When inhibited, interferon release will be decreased, reducing luciferase expression in a detectable manner. The compounds can optionally be tested in the presence of external stimulation (i.e., using cGAMP, a natural agonist of STING, or MSA-2).
The STING pathway activity was evaluated in THP1-Dual™ cells (Invivogen). […] After incubating at 37° C. for 16 hours, the luciferase activity was measured by QUANTI-Luc™ (Invivogen).

[4] = molecular target: T2, human STING (Homo sapiens, UniProt Q86WV6, H232R); experiment: Cryo-EM structure of human STING in complex with compound; format: binding
T2 construct: human STING residues 1-343, excluding the C-terminal tail; T6SS immunity protein 3 (Tsi3) from Pseudomonas aeruginosa (C, cleaved yes); human rhinovirus 3C protease cleavage site (C); made in house; host or cells: HEK293F cells (pEZT-BM vector)
Protocol: Cryo-EM data collection and image processing. Purified wild type human STING at 50 μM were incubated with cGAMP at 100 μM and C53 at 100 μM for formation of the protein/ligands complex. The complex was purified using a Superose 6 10/300 gel filtration column (GE healthcare) in buffer C. Peak fractions were collected and concentrated to 2.9 mg/ml. Additional cGAMP (100 μM) and C53 (100 μM) were added to ensure saturation of the protein by the ligands. The sample was applied to a glow-discharged Quantifoil R1.2/1.3 300-mesh gold holey carbon grid (Quantifoil, Micro Tools GmbH, Germany), blotted under 100% humidity at 4° C. and plunged into liquid ethane using a Mark IV Vitrobot (FEI).
Micrographs were collected on a Titan Krios microscope (FEI) with a K3 Summit direct electron detector (Gatan) in the super-resolution counting mode operated at 300 kV. The slit width of the GIF-Quantum energy filter was set to 20 eV. The nominal magnification was 81,000× and the pixel size of 1.08 Å. Micrographs were dose-fractioned into 36 frames with a total exposure time of 7.2 s at the dose rate of 1.6 e^−/Å^2/frame in the correlated double sampling (CDS) mode. Movie frames were motion-corrected and dose-weighted using the Motioncorr2 program (version 1.2). GCTF 1.06 was used for CTF correction. […] Local resolution was calculated in RELION (FIG. 6B). […]

[5] = molecular target: T1, STING; experiment: Interferon production in THP-1 cells under basal conditions (no external stimulation); format: cell-based; conditions: for Comparative antagonistic effect among UT017, UT018, UT019, UT0122 / Relative induction of interferon production under basal conditions: THP-1 cell lines, basal conditions; for Relative induction of interferon production under basal conditions: increasing concentrations
From the text: as §2, §1
The STING pathway activity was evaluated in THP1-Dual™ cells (Invivogen). 1.5×10^5 THP1-Dual™ cells were seeded in 96-well plates and treated with the test compound followed by cGAMP (100 uM) or MSA-2 (10 uM, Science 2020, 369, eaba6098) 2 hours later. After incubating at 37° C. for 16 hours, the luciferase activity was measured by QUANTI-Luc™ (Invivogen).

T1 sequence (Q86WV6 whole entry R71H/G230A/H232R/R293Q): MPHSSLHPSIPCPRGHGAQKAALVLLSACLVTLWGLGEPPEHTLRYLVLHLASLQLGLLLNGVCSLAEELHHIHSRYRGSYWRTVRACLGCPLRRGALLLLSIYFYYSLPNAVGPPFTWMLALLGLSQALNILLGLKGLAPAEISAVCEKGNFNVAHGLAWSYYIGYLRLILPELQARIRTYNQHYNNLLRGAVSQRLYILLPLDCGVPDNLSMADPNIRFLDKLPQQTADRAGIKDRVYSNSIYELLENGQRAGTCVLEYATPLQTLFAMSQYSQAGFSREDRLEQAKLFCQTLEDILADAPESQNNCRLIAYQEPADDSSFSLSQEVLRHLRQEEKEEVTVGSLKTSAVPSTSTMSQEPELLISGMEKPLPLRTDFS
human STING (Homo sapiens, UniProt Q86WV6), sequence (Q86WV6 whole entry H232R): as the sequence (Q86WV6 whole entry R71H/G230A/H232R/R293Q) above, with H71R, A230G, Q293R counted along it
T2 sequence (Q86WV6 1-343 H232R): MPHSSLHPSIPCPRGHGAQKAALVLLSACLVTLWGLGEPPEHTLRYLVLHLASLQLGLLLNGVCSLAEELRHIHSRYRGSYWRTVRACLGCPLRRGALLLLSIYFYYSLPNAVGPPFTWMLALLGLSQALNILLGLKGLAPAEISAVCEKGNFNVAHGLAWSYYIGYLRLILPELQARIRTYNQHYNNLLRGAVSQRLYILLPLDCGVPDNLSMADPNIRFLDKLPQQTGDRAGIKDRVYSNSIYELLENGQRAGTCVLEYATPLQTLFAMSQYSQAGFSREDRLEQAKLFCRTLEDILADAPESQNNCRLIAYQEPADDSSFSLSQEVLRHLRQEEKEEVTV

Row | inhibition at 10 µM [3] [%] | Binding site in human STING (cryo-EM) [4] | inhibition at 32 µM ([5]; 32 μM compound, no external stimulation, THP-1 cells) [%] | Comparative antagonistic effect among UT017, UT018, UT019, UT0122 [5] | Induction of interferon by cGAMP ([2]; THP1-Lucia ISG cells, varying compound concentration, increasing dose of cGAMP) | Structure (SMILES) | Activation of human STING [1] | cGAMP induced IFN induction in the presence of increasing concentrations of compound [2] | Induction of interferon production in the presence of MSA2 [3] | Interferon production in the presence of cGAMP [3] | Relative induction of interferon production under basal conditions [5]
1 |  |  |  |  |  | Cc1ccc2c(=O)c3cccc(CC(=O)O)c3oc2c1C [DMXAA, 5,6-dimethylxanthenone-4-acetic acid] | does not activate human STING |  |  |  | 
2 | > 50 | bind at the same binding pocket as C53 |  |  |  | CC1(C)C(=O)N(Cc2c(F)cccc2C(F)(F)F)c2cc(C(=O)NCc3c(F)cc(F)cc3F)ccc21 [UT009, 1-(2-fluoro-6-(trifluoromethyl)benzyl)-3,3-dimethyl-2-oxo-N-(2,4,6-trifluorobenzyl)indoline-6-carboxamide] |  | dose-dependent suppression of interferon production | inhibited the induction of interferon production in a dose dependent manner | reduction in interferon production with increasing concentration | 
3 |  |  | > 50 | highest antagonistic effect |  | CC1(C)C(=O)N(Cc2c(F)cccc2Cl)c2cc(CNS(=O)(=O)c3c(F)cc(F)cc3F)ccc21 [UT019, N-((1-(2-chloro-6-fluorobenzyl)-3,3-dimethyl-2-oxoindolin-6-yl)methyl)-2,4,6-trifluorobenzenesulfonamide] |  | dose-dependent suppression of interferon production |  |  | suppressed at the highest concentration tested
4 | > 50 |  |  | highest antagonistic effect | suppressed in a dose-dependent manner | Cc1nn(C)c(CN2C(=O)C(C)(C)c3ccc(C(=O)NCc4cc5ccccc5[nH]4)cc32)c1Br [UT122, N-((1H-indol-2-yl)methyl)-1-((4-bromo-1,3-dimethyl-1H-pyrazol-5-yl)methyl)-3,3-dimethyl-2-oxoindoline-6-carboxamide] |  | dose-dependent suppression of interferon production | antagonistic activity with an inhibition of interferon production in a dose dependent manner | antagonistic activity with an inhibition of interferon production in a dose dependent manner | suppressed at the highest concentration tested
